± gives the expanded uncertainty stated by the source.
What was measured:
[1] = 308.15 K; 101.33 kPa; Liquid; Vibrating tube method
[2] = refractive index (Na D-line) (dimensionless); conditions: 308.15 K; 101.33 kPa; Liquid; Standard Abbe refractometry
[3] = excess molar enthalpy (molar enthalpy of mixing); xn = mol fraction of the nth substance listed; conditions: 308.15 K, 101.3 kPa, Liquid
[4] = xn = mol fraction of the nth substance listed; conditions: 308.15 K, 101.3 kPa, Liquid

Cc1ccccc1C [1,2-dimethylbenzene]
Conditions	mass density [kg/m3]	refractive index
[1]	867.41 ± 2.3	–
[2]	–	1.5031 ± 0.0012

Cc1ccccc1C [1,2-dimethylbenzene] + CCCCOC(C)=O
Conditions	excess molar enthalpy [kcal/mol]	excess molar volume [m3/mol]
[3], x2 = 0.0707	-0.00215 ± 0.00043	–
[3], x2 = 0.1859	-0.00296 ± 0.00043	–
[3], x2 = 0.2214	-0.00478 ± 0.000454	–
[3], x2 = 0.3134	-0.00621 ± 0.000478	–
[3], x2 = 0.3539	-0.00652 ± 0.000478	–
[3], x2 = 0.4773	-0.00693 ± 0.000502	–
[3], x2 = 0.5868	-0.00717 ± 0.000502	–
[3], x2 = 0.6462	-0.00696 ± 0.000502	–
[3], x2 = 0.8002	-0.00526 ± 0.000478	–
[3], x2 = 0.8364	-0.00454 ± 0.000454	–
[4], x2 = 0.1121	–	-2.8e-08 ± 9e-09
[4], x2 = 0.1983	–	-6.3e-08 ± 1e-08
[4], x2 = 0.2744	–	-8.2e-08 ± 1e-08
[4], x2 = 0.3652	–	-9.7e-08 ± 1e-08
[4], x2 = 0.4665	–	-1.09e-07 ± 1e-08
[4], x2 = 0.5691	–	-1.08e-07 ± 1e-08
[4], x2 = 0.606	–	-1.06e-07 ± 1e-08
[4], x2 = 0.7502	–	-9e-08 ± 1e-08
[4], x2 = 0.8041	–	-8.3e-08 ± 1e-08
[4], x2 = 0.9032	–	-5.6e-08 ± 9e-09

Cc1cccc(C)c1 [1,3-dimethylbenzene]
Conditions	mass density [kg/m3]	refractive index
[1]	851.53 ± 2.2	–
[2]	–	1.4946 ± 0.0012

Cc1cccc(C)c1 [1,3-dimethylbenzene] + CCCCOC(C)=O
Conditions	excess molar enthalpy [kcal/mol]	excess molar volume [m3/mol]
[3], x2 = 0.1568	0.00237 ± 0.00043	–
[3], x2 = 0.1886	0.00332 ± 0.00043	–
[3], x2 = 0.2879	0.00409 ± 0.000454	–
[3], x2 = 0.4265	0.00523 ± 0.000478	–
[3], x2 = 0.4818	0.00528 ± 0.000478	–
[3], x2 = 0.5375	0.00554 ± 0.000478	–
[3], x2 = 0.6365	0.00559 ± 0.000478	–
[3], x2 = 0.7881	0.00457 ± 0.000454	–
[3], x2 = 0.8286	0.0043 ± 0.000454	–
[3], x2 = 0.9169	0.00284 ± 0.00043	–
[4], x2 = 0.1509	–	-7.7e-08 ± 1e-08
[4], x2 = 0.1651	–	-8.3e-08 ± 1e-08
[4], x2 = 0.2243	–	-9.4e-08 ± 1e-08
[4], x2 = 0.314	–	-1.27e-07 ± 1e-08
[4], x2 = 0.3921	–	-1.42e-07 ± 1e-08
[4], x2 = 0.5651	–	-1.44e-07 ± 1e-08
[4], x2 = 0.669	–	-1.31e-07 ± 1e-08
[4], x2 = 0.8091	–	-9.7e-08 ± 1e-08
[4], x2 = 0.8816	–	-5.2e-08 ± 9e-09
[4], x2 = 0.9052	–	-4.3e-08 ± 9e-09

Cc1ccc(C)cc1 [1,4-dimethylbenzene]
Conditions	mass density [kg/m3]	refractive index
[1]	847.91 ± 2.2	–
[2]	–	1.4879 ± 0.0012

c1ccccc1 [benzene]
Conditions	mass density [kg/m3]	refractive index
[1]	862.93 ± 2.3	–
[2]	–	1.4921 ± 0.0012

CCCCOC(C)=O [butyl ethanoate]
Conditions	mass density [kg/m3]	refractive index
[1]	865.45 ± 2.3	–
[2]	–	1.3908 ± 0.0012

CCCCOC(C)=O [butyl ethanoate] + C1CCCCC1
Conditions	excess molar enthalpy [kcal/mol]	excess molar volume [m3/mol]
[3], x1 = 0.1409	0.195 ± 0.00335	–
[3], x1 = 0.1975	0.256 ± 0.0043	–
[3], x1 = 0.2672	0.307 ± 0.00502	–
[3], x1 = 0.3389	0.333 ± 0.0055	–
[3], x1 = 0.4035	0.331 ± 0.0055	–
[3], x1 = 0.4961	0.3 ± 0.00502	–
[3], x1 = 0.5517	0.268 ± 0.00454	–
[3], x1 = 0.6466	0.205 ± 0.00359	–
[3], x1 = 0.7965	0.112 ± 0.00213	–
[3], x1 = 0.8311	0.0947 ± 0.00184	–
[3], x1 = 0.9061	0.0565 ± 0.00124	–
[4], x1 = 0.1062	–	3.47e-07 ± 2.1e-08
[4], x1 = 0.1575	–	4.35e-07 ± 2.1e-08
[4], x1 = 0.223	–	5.21e-07 ± 2.2e-08
[4], x1 = 0.3004	–	6.04e-07 ± 2.2e-08
[4], x1 = 0.4851	–	6.74e-07 ± 2.3e-08
[4], x1 = 0.4863	–	6.85e-07 ± 2.3e-08
[4], x1 = 0.5412	–	6.54e-07 ± 2.3e-08
[4], x1 = 0.6489	–	6.07e-07 ± 2.2e-08
[4], x1 = 0.735	–	4.98e-07 ± 2.2e-08
[4], x1 = 0.7661	–	4.06e-07 ± 2.1e-08
[4], x1 = 0.8854	–	1.95e-07 ± 2e-08

CCCCOC(C)=O [butyl ethanoate] + Cc1ccc(C)cc1
Conditions	excess molar enthalpy [kcal/mol]	excess molar volume [m3/mol]
[3], x1 = 0.0722	-0.00356 ± 0.00043	–
[3], x1 = 0.1892	-0.00856 ± 0.000526	–
[3], x1 = 0.3182	-0.0114 ± 0.00055	–
[3], x1 = 0.359	-0.0122 ± 0.000574	–
[3], x1 = 0.4828	-0.0138 ± 0.000598	–
[3], x1 = 0.6364	-0.0136 ± 0.000598	–
[3], x1 = 0.6512	-0.0136 ± 0.000598	–
[3], x1 = 0.7888	-0.0107 ± 0.00055	–
[3], x1 = 0.8394	-0.00882 ± 0.000526	–
[3], x1 = 0.9169	-0.00545 ± 0.000478	–
[4], x1 = 0.0881	–	-8e-08 ± 1e-08
[4], x1 = 0.163	–	-1.59e-07 ± 1e-08
[4], x1 = 0.314	–	-2.47e-07 ± 1e-08
[4], x1 = 0.3481	–	-2.81e-07 ± 1e-08
[4], x1 = 0.5001	–	-3.16e-07 ± 1e-08
[4], x1 = 0.6164	–	-3.18e-07 ± 1e-08
[4], x1 = 0.738	–	-2.82e-07 ± 1e-08
[4], x1 = 0.7871	–	-2.64e-07 ± 1e-08
[4], x1 = 0.8758	–	-2.21e-07 ± 1e-08
[4], x1 = 0.9179	–	-1.71e-07 ± 1e-08

CCCCOC(C)=O [butyl ethanoate] + Cc1ccccc1
Conditions	excess molar enthalpy [kcal/mol]	excess molar volume [m3/mol]
[3], x1 = 0.152	-0.00698 ± 0.000502	–
[3], x1 = 0.1873	-0.0086 ± 0.000526	–
[3], x1 = 0.2873	-0.012 ± 0.000574	–
[3], x1 = 0.3922	-0.0136 ± 0.000598	–
[3], x1 = 0.4465	-0.0143 ± 0.000598	–
[3], x1 = 0.502	-0.0148 ± 0.000621	–
[3], x1 = 0.543	-0.0151 ± 0.000621	–
[3], x1 = 0.6	-0.0148 ± 0.000621	–
[3], x1 = 0.7435	-0.0124 ± 0.000574	–
[3], x1 = 0.8705	-0.0086 ± 0.000526	–
[3], x1 = 0.8898	-0.00765 ± 0.000502	–
[4], x1 = 0.055	–	-1.9e-08 ± 9e-09
[4], x1 = 0.1581	–	-6e-08 ± 9e-09
[4], x1 = 0.2744	–	-8.2e-08 ± 1e-08
[4], x1 = 0.442	–	-1e-07 ± 1e-08
[4], x1 = 0.5243	–	-1.03e-07 ± 1e-08
[4], x1 = 0.6231	–	-1.02e-07 ± 1e-08
[4], x1 = 0.7619	–	-8.9e-08 ± 1e-08
[4], x1 = 0.849	–	-6.9e-08 ± 1e-08
[4], x1 = 0.9052	–	-5.1e-08 ± 9e-09

CCCCOC(C)=O [butyl ethanoate] + c1ccccc1
Conditions	excess molar enthalpy [kcal/mol]	excess molar volume [m3/mol]
[3], x1 = 0.1269	-0.00179 ± 0.000406	–
[3], x1 = 0.2523	-0.00335 ± 0.00043	–
[3], x1 = 0.4029	-0.005 ± 0.000454	–
[3], x1 = 0.4575	-0.00543 ± 0.000478	–
[3], x1 = 0.4958	-0.00586 ± 0.000478	–
[3], x1 = 0.5619	-0.00631 ± 0.000478	–
[3], x1 = 0.6599	-0.00655 ± 0.000478	–
[3], x1 = 0.7279	-0.00621 ± 0.000478	–
[3], x1 = 0.7714	-0.00586 ± 0.000478	–
[3], x1 = 0.8714	-0.00488 ± 0.000454	–
[4], x1 = 0.0901	–	4.2e-08 ± 9e-09
[4], x1 = 0.2214	–	7e-08 ± 1e-08
[4], x1 = 0.3662	–	7.6e-08 ± 1e-08
[4], x1 = 0.4623	–	6.9e-08 ± 1e-08
[4], x1 = 0.543	–	6e-08 ± 9e-09
[4], x1 = 0.6504	–	4.4e-08 ± 9e-09
[4], x1 = 0.7052	–	3.6e-08 ± 9e-09
[4], x1 = 0.7601	–	2.8e-08 ± 9e-09
[4], x1 = 0.8505	–	1.7e-08 ± 9e-09
[4], x1 = 0.937	–	6e-09 ± 9e-09

C1CCCCC1 [cyclohexane]
Conditions	mass density [kg/m3]	refractive index
[1]	764.43 ± 2	–
[2]	–	1.4205 ± 0.0012

Cc1ccccc1 [toluene]
Conditions	mass density [kg/m3]	refractive index
[1]	852.8 ± 2.2	–
[2]	–	1.4885 ± 0.0012
